Measured values: PubChem BioAssay AID1259411 (Chemical Carcinogenesis Research Information System (CCRIS), 2018)
The source made the active and inactive calls. The rule behind the calls is not given here.

Test system: rodent carcinogenicity bioassays, tumor incidence
Test: CCRIS carcinogenicity studies
Conditions: Route: ORAL, Dose: 0, Dose: 0
Method in brief: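 Archive of carcinogenicity, mutagenicity, tumor promotion and tumor inhibition results drawn from journals, NCI reports and other sources, expert-reviewed; covers 1985-2011 and is no longer updated.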

Compound: Nc1cccc2c(N)cccc12
- carcinogen call (Species: MOUSE, Strain/Sex: B6C3F1/FEMALE, 0.1, 0.2% IN DIET FOR 103 WK (STUDY DURATION: 105-109 WK), 0.1, 0.2% IN DIET FOR 103 WK (STUDY DURATION: 105-109 WK), Tumor Site: Type of Lesion: LUNG: ALVEOLAR/BRONCHIOLAR ADENOMA OR CARCINOMA, LIVER: HEPATOCELLULAR CARCINOMA, HEPATOCELLULAR ADENOMA OR CARCINOMA, T, Tumor Site: Type of Lesion: LUNG: ALVEOLAR/BRONCHIOLAR ADENOMA OR CARCINOMA, LIVER: HEPATOCELLULAR CARCINOMA, HEPATOCELLULAR ADENOMA OR CARCINOMA, T): active; positive
- carcinogen call (Species: MOUSE, Strain/Sex: B6C3F1/MALE, 0.1, 0.2% IN DIET FOR 103 WK (STUDY DURATION: 105-109 WK), 0.1, 0.2% IN DIET FOR 103 WK (STUDY DURATION: 105-109 WK), Tumor Site: Type of Lesion: THYROID GLAND: PAPILLARY ADENOMA OR FOLLICULAR CELL ADENOMA OR PAPILLARY CYSTADENOMA (NOS)): active; positive
- carcinogen call (Species: RAT, Strain/Sex: F344/FEMALE, 0.05, 0.1% IN DIET FOR 103 WK (STUDY DURATION: 106-110 WK), 0.05, 0.1% IN DIET FOR 103 WK (STUDY DURATION: 106-110 WK), Tumor Site: Type of Lesion: CLITORAL GLAND: ADENOMA (NOS) OR CARCINOMA (NOS), UTERUS: ENDOMETRIAL STROMAL POLYP): active; positive
- carcinogen call (Species: RAT, Strain/Sex: F344/MALE, 0.05, 0.1% IN DIET FOR 103 WK (STUDY DURATION: 106-109 WK), 0.05, 0.1% IN DIET FOR 103 WK (STUDY DURATION: 106-109 WK)): inactive; negative
